Assays:
U-87 MG [1] = test: Cytotoxicity against human U87 cells assessed as reduction in cell viability incubated for 72 hrs in presence of rAOC-Rib by alamar blue assay; assay type: functional, cell-based, U-87MG ATCC
U-87 MG [2] = test: Cytotoxicity against human U87 cells assessed as reduction in cell viability incubated for 72 hrs by alamar blue assay; assay type: functional, cell-based, U-87MG ATCC
[3] = Half life of the compound; assay type: physicochemical
MDA-MB-231 [4] = test: Cytotoxicity against human MDA-MB-231 cells assessed as reduction in cell viability incubated for 72 hrs by alamar blue assay; assay type: functional, cell-based; conditions: MDA-MB-231, 72 h
[5] = Drug uptake in liver of mouse xenografted with human U87 MG cells at 25 nmol, iv measured after 24 hrs by fluorescence imaging analysis; assay type: ADME, organism-based, U-87MG ATCC; conditions: in vivo
MDA-MB-231 [6] = test: Inhibition of PARP production in human MDA-MB-231 cells preincubated for 24 hrs followed by H2O2 addition and measured over 15 mins; assay type: cell-based; conditions: dose 0.001-10 µM, time 1455.0 min, DDE = dose-dependent effect
[7] = Drug uptake in tumor of mouse xenografted with human U87 MG cells assessed as increase in fluorescence signal at 25 nmol, iv measured after 24 hrs by […] imaging method; assay type: ADME, organism-based, Neoplasm, U-87MG ATCC; conditions: in vivo
U87 = test: Inhibition of PARP production in human U87 cells preincubated for 24 hrs followed by H2O2 addition and measured over 15 mins; assay type: cell-based; conditions: dose 0.1-10 µM, time 1455.0 min, DDE = dose-dependent effect

| SMILES | IC50 (U-87 MG [2]) [µM] | IC50 (MDA-MB-231 [4]) [µM] | also measured |
| --- | --- | --- | --- |
| CC1(C)C(/C=C/C2=C(Cl)C(=C/C=C3/N(CCCCCC(=O)O)c4ccccc4C3(C)C)/CCC2)=[N+](CCCCCC(=O)O)c2ccccc21 | 27 |  | IC50 (U-87 MG [1]): 28 µM; half-life [3]: 30 min |
| CN(Cc1ccc(-c2[nH]c3cc(F)cc4c3c2CCNC4=O)cc1)C(=O)CCCCCN1/C(=C/C=C2\CCCC(/C=C/C3=[N+](CCCCCC(=O)O)c4ccccc4C3(C)C)=C2Cl)C(C)(C)c2ccccc21 | 15 | 13 | Drug uptake [5]: Active; inhibition (MDA-MB-231 [6]): Dde; Drug uptake [7]: Active |
| CN(Cc1ccc(-c2[nH]c3cc(F)cc4c3c2CCNC4=O)cc1)C(=O)CCCCCCCNC(=O)CCCCCN1/C(=C/C=C2\CCCC(/C=C/C3=[N+](CCCCCC(=O)O)c4ccccc4C3(C)C)=C2Cl)C(C)(C)c2ccccc21 | 12 |  | inhibition (U87): Dde |
| CN(CCCCCCCCN)Cc1ccc(-c2[nH]c3cc(F)cc4c3c2CCNC4=O)cc1 | 79 |  |  |
| CNCc1ccc(-c2[nH]c3cc(F)cc4c3c2CCNC4=O)cc1 [RUCAPARIB] | 20 | 39 |  |
